A short description of the experiment: Binding affinity towards sigma receptor in guinea pig brain membrane was determined by using [3H]DTG as the radioligand.

As for `OC12C3C4CC5C6C4C1C6C(C53)N2Cc1cccc(Br)c1` (stereo unspecified) [11-(3-bromobenzyl)-11-azahexacyclo[5.4.1.02,6.03,10.04,8.09,12]dodecan-1-ol], the affinity corresponds to a Ki of 109 nM.

The values are drawn from BindingDB's records for doi:10.1016/0960-894X(96)00067-4 (1996).
